# Assay results reported in patent US20130123481A1, “MODIFIED NUCLEOSIDES, NUCLEOTIDES, AND NUCLEIC ACIDS, AND USES THEREOF” (MODERNA THERAPEUTICS, priority 2011, published 2013).
# How the values were obtained:
# [1] = tested on: human embryonic kidney 293 (HEK293) cells; test: Toxicity of Nucleoside Triphosphates (NTPs), CYTO TOX-GLO assay; assay type: cell-based
# Experimental: The cytotoxicity of natural and modified nucleoside triphosphates (NTPs) alone or in combination with other bases, was analyzed in human embryonic kidney 293 (HEK293) cells in the absence of transfection reagent. […] 10 ul of the NTPs outlined in Table 12 were combined with 10 ul of lipid dilution and incubated for 30 minutes to form a complex before 80 ul of the HEK293 cell suspension was added to the NTP complex. Natural and modified NTPs were transfected at a concentration of 2.1 nM, 21 nM, 210 nM, 2.1 um, 21 uM, 210 um or 2.1 mM. NTPs in combination were transfected at a total concentration of NTPs of 8.4 nM, 84 nM, 840 nM, 8.4 uM, 84 uM, 840 uM and 8.4 mM.
# [2] = tested on: peripheral blood mononuclear cells (PBMC); test: In Vitro Screening in PBMC - G-CSF protein expression; assay type: cell-based, human; details: 500 ng mRNA
# Text: The supernatant was harvested and stored frozen until analyzed by ELISA to determine the G-CSF protein expression, and the induction of the cytokines interferon-alpha (IFN-α) and tumor necrosis factor alpha (TNF-α).
smiles,measurement,setting,value
Cn1cc([C@@H]2O[C@H](CO)[C@@H](O)[C@H]2O)c(=O)[nH]c1=O [N1-methyl pseudouridine],percent of viable cells,"[1]; HEK293, individual NTP 2.1 nM, 4 hr",91.89%
same,percent of viable cells,"[1]; HEK293, individual NTP 2.1 nM, 24 hr",87.79%
same,percent of viable cells,"[1]; HEK293, individual NTP 2.1 nM, 48 hr",87.81%
same,percent of viable cells,"[1]; HEK293, individual NTP 2.1 nM, 72 hr",92.98%
same,percent of viable cells,"[1]; HEK293, individual NTP 21 nM, 4 hr",91.44%
same,percent of viable cells,"[1]; HEK293, individual NTP 21 nM, 24 hr",86.85%
same,percent of viable cells,"[1]; HEK293, individual NTP 21 nM, 48 hr",86.72%
same,percent of viable cells,"[1]; HEK293, individual NTP 21 nM, 72 hr",92.84%
same,percent of viable cells,"[1]; HEK293, individual NTP 210 nM, 4 hr",92.15%
same,percent of viable cells,"[1]; HEK293, individual NTP 210 nM, 24 hr",85.89%
same,percent of viable cells,"[1]; HEK293, individual NTP 210 nM, 48 hr",87.38%
same,percent of viable cells,"[1]; HEK293, individual NTP 210 nM, 72 hr",92.40%
same,percent of viable cells,"[1]; HEK293, individual NTP 2.1 uM, 4 hr",90.41%
same,percent of viable cells,"[1]; HEK293, individual NTP 2.1 uM, 24 hr",85.72%
same,percent of viable cells,"[1]; HEK293, individual NTP 2.1 uM, 48 hr",85.85%
same,percent of viable cells,"[1]; HEK293, individual NTP 2.1 uM, 72 hr",92.25%
same,percent of viable cells,"[1]; HEK293, individual NTP 21 uM, 4 hr",91.48%
same,percent of viable cells,"[1]; HEK293, individual NTP 21 uM, 24 hr",85.17%
same,percent of viable cells,"[1]; HEK293, individual NTP 21 uM, 48 hr",87.52%
same,percent of viable cells,"[1]; HEK293, individual NTP 21 uM, 72 hr",93.83%
same,percent of viable cells,"[1]; HEK293, individual NTP 210 uM, 4 hr",91.43%
same,percent of viable cells,"[1]; HEK293, individual NTP 210 uM, 24 hr",86.48%
same,percent of viable cells,"[1]; HEK293, individual NTP 210 uM, 48 hr",86.02%
same,percent of viable cells,"[1]; HEK293, individual NTP 210 uM, 72 hr",93.03%
same,percent of viable cells,"[1]; HEK293, individual NTP 2.1 mM, 4 hr",92.45%
same,percent of viable cells,"[1]; HEK293, individual NTP 2.1 mM, 24 hr",88.92%
same,percent of viable cells,"[1]; HEK293, individual NTP 2.1 mM, 48 hr",89.84%
same,percent of viable cells,"[1]; HEK293, individual NTP 2.1 mM, 72 hr",96.80%
O=c1cc[nH]c(=O)[nH]1 [Uracil],percent of viable cells,"[1]; human, 4 h, 2.1 nM",93.15%
same,percent of viable cells,"[1]; human, 4 h, 21 nM",92.90%
same,percent of viable cells,"[1]; human, 4 h, 210 nM",91.05%
same,percent of viable cells,"[1]; human, 4 h, 2.1 uM",90.90%
same,percent of viable cells,"[1]; human, 4 h, 21 uM",91.95%
same,percent of viable cells,"[1]; human, 4 h, 210 uM",89.60%
same,percent of viable cells,"[1]; human, 4 h, 2.1 mM",90.97%
same,percent of viable cells,"[1]; human, 24 h, 2.1 nM",87.63%
same,percent of viable cells,"[1]; human, 24 h, 21 nM",87.23%
same,percent of viable cells,"[1]; human, 24 h, 210 nM",86.52%
same,percent of viable cells,"[1]; human, 24 h, 2.1 uM",86.75%
same,percent of viable cells,"[1]; human, 24 h, 21 uM",85.89%
same,percent of viable cells,"[1]; human, 24 h, 210 uM",86.48%
same,percent of viable cells,"[1]; human, 24 h, 2.1 mM",87.68%
same,percent of viable cells,"[1]; human, 48 h, 2.1 nM",91.28%
same,percent of viable cells,"[1]; human, 48 h, 21 nM",88.89%
same,percent of viable cells,"[1]; human, 48 h, 210 nM",88.33%
same,percent of viable cells,"[1]; human, 48 h, 2.1 uM",89.44%
same,percent of viable cells,"[1]; human, 48 h, 21 uM",89.11%
same,percent of viable cells,"[1]; human, 48 h, 210 uM",88.98%
same,percent of viable cells,"[1]; human, 48 h, 2.1 mM",94.39%
same,percent of viable cells,"[1]; human, 72 h, 2.1 nM",95.51%
same,percent of viable cells,"[1]; human, 72 h, 21 nM",94.53%
same,percent of viable cells,"[1]; human, 72 h, 210 nM",94.50%
same,percent of viable cells,"[1]; human, 72 h, 2.1 uM",94.60%
same,percent of viable cells,"[1]; human, 72 h, 21 uM",93.63%
same,percent of viable cells,"[1]; human, 72 h, 210 uM",93.45%
same,percent of viable cells,"[1]; human, 72 h, 2.1 mM",96.82%
Nc1ncnc2nc[nH]c12 [Adenine],percent of viable cells,"[1]; human, 4 h, 2.1 nM",93.48%
same,percent of viable cells,"[1]; human, 4 h, 21 nM",93.21%
same,percent of viable cells,"[1]; human, 4 h, 210 nM",90.36%
same,percent of viable cells,"[1]; human, 4 h, 2.1 uM",90.23%
same,percent of viable cells,"[1]; human, 4 h, 21 uM",91.20%
same,percent of viable cells,"[1]; human, 4 h, 210 uM",85.97%
same,percent of viable cells,"[1]; human, 4 h, 2.1 mM",90.03%
same,percent of viable cells,"[1]; human, 24 h, 2.1 nM",86.44%
same,percent of viable cells,"[1]; human, 24 h, 21 nM",87.19%
same,percent of viable cells,"[1]; human, 24 h, 210 nM",86.94%
same,percent of viable cells,"[1]; human, 24 h, 2.1 uM",86.81%
same,percent of viable cells,"[1]; human, 24 h, 21 uM",86.86%
same,percent of viable cells,"[1]; human, 24 h, 210 uM",87.31%
same,percent of viable cells,"[1]; human, 24 h, 2.1 mM",88.42%
same,percent of viable cells,"[1]; human, 48 h, 2.1 nM",92.12%
same,percent of viable cells,"[1]; human, 48 h, 21 nM",91.13%
same,percent of viable cells,"[1]; human, 48 h, 210 nM",89.17%
same,percent of viable cells,"[1]; human, 48 h, 2.1 uM",89.80%
same,percent of viable cells,"[1]; human, 48 h, 21 uM",89.94%
same,percent of viable cells,"[1]; human, 48 h, 210 uM",90.55%
same,percent of viable cells,"[1]; human, 48 h, 2.1 mM",93.71%
same,percent of viable cells,"[1]; human, 72 h, 2.1 nM",95.74%
same,percent of viable cells,"[1]; human, 72 h, 21 nM",93.88%
same,percent of viable cells,"[1]; human, 72 h, 210 nM",92.22%
same,percent of viable cells,"[1]; human, 72 h, 2.1 uM",94.58%
same,percent of viable cells,"[1]; human, 72 h, 21 uM",93.83%
same,percent of viable cells,"[1]; human, 72 h, 210 uM",94.81%
same,percent of viable cells,"[1]; human, 72 h, 2.1 mM",97.49%
Cc1c[nH]c(=O)nc1N [5-methyl cytosine],percent of viable cells,"[1]; human, 4 h, 2.1 nM",92.23%
same,percent of viable cells,"[1]; human, 4 h, 21 nM",91.40%
same,percent of viable cells,"[1]; human, 4 h, 210 nM",92.31%
same,percent of viable cells,"[1]; human, 4 h, 2.1 uM",91.31%
same,percent of viable cells,"[1]; human, 4 h, 21 uM",91.16%
same,percent of viable cells,"[1]; human, 4 h, 210 uM",91.54%
same,percent of viable cells,"[1]; human, 4 h, 2.1 mM",92.01%
same,percent of viable cells,"[1]; human, 24 h, 2.1 nM",86.35%
same,percent of viable cells,"[1]; human, 24 h, 21 nM",86.37%
same,percent of viable cells,"[1]; human, 24 h, 210 nM",84.71%
same,percent of viable cells,"[1]; human, 24 h, 2.1 uM",85.14%
same,percent of viable cells,"[1]; human, 24 h, 21 uM",84.72%
same,percent of viable cells,"[1]; human, 24 h, 210 uM",85.76%
same,percent of viable cells,"[1]; human, 24 h, 2.1 mM",87.97%
same,percent of viable cells,"[1]; human, 48 h, 2.1 nM",88.18%
same,percent of viable cells,"[1]; human, 48 h, 21 nM",87.10%
same,percent of viable cells,"[1]; human, 48 h, 210 nM",86.44%
same,percent of viable cells,"[1]; human, 48 h, 2.1 uM",86.18%
same,percent of viable cells,"[1]; human, 48 h, 21 uM",85.74%
same,percent of viable cells,"[1]; human, 48 h, 210 uM",85.94%
same,percent of viable cells,"[1]; human, 48 h, 2.1 mM",87.29%
same,percent of viable cells,"[1]; human, 72 h, 2.1 nM",91.93%
same,percent of viable cells,"[1]; human, 72 h, 21 nM",92.10%
same,percent of viable cells,"[1]; human, 72 h, 210 nM",89.97%
same,percent of viable cells,"[1]; human, 72 h, 2.1 uM",90.92%
same,percent of viable cells,"[1]; human, 72 h, 21 uM",92.26%
same,percent of viable cells,"[1]; human, 72 h, 210 uM",88.10%
same,percent of viable cells,"[1]; human, 72 h, 2.1 mM",96.08%
Cn1cnc2c(ncn2[C@@H]2O[C@H](CO)[C@@H](O)[C@H]2O)c1=N [N1-methyladenosine],G-CSF Protein Expression,"[2]; PBMC Donor 1, 0.4 uL Lipofectamine 2000",182 pg/mL
same,G-CSF Protein Expression,[2]; PBMC Donor 2,177 pg/mL
same,G-CSF Protein Expression,[2]; PBMC Donor 3,191 pg/mL
